{"source": "patent US8778954B2", "about": "“Phenylpyridine derivative and medicinal agent comprising same” (Kowa Company, Ltd., priority 2009, dated 2014)", "key": {"[1]": {"system": "db/db mice", "assay": "Impaired glucose tolerance improving activity in type 2 diabetes model mouse", "assay_type": "in vivo", "settings": "oral once a day, Example 23 10 mg/kg, Example 21 30 mg/kg, telmisartan 30 mg/kg", "experimental": "By using 7-week old db/db mice, the body weight and the plasma glucose concentration of each mouse were measured before administration of the medicine, and group separation was performed by blocking assignment so that there was no variation of these values between respective groups. Solvent control (0.5% MC), 5 mg/kg rosiglitazone, 30 mg/kg telmisartan, 10 mg/kg of the compound of Example 23, and 30 mg/kg of the compound of Example 21 were orally administered iteratively for 4 weeks, once a day. Blood collecting was performed from the orbital vein plexus, and the plasma glucose concentration was measured at 2 weeks after the initiation of the administration. Furthermore, oral glucose tolerance test was performed at 4 weeks after the initiation of the administration. Specifically, the mouse was fasted for 24 hours from the night before the glucose tolerance test, and then a glucose solution was orally administered at a dose of 2 g/kg. The blood was collected from the tail vein of the mouse at 15, 30, 60, and 120 minutes after the administration of the glucose solution, and the concentration of the plasma glucose was measured. The area surrounded with the measured plasma glucose concentration and the time was taken as the area under the curve (AUC), and AUC for 120 minutes after administration of the glucose solution was estimated from the trapezoidal method.\nVehicle, Rosiglitazone, Telmisartan, Compound 23, and Compound 21 in FIGS. 2 and 3 represent solvent control, rosiglitazone, telmisartan, the compound of Example 23, and the compound of Example 21, respectively. The vertical axis of FIG. 2 represents the plasma glucose concentration. The data in FIG. 2 represents individual values and average values of each individual. The vertical axis of FIG. 3 represents the area under the curve surrounded with the plasma glucose concentration and the time (for 120 minutes after administration of the glucose solution). The data in FIG. 3 represents individual values and average values of each individual. […] Such activities were not confirmed for the telmisartan administration group."}, "[2]": {"system": "Zucker diabetic fatty (ZDF) rats", "assay": "Activity for diabetic nephropathy in Zucker diabetic fatty rats", "assay_type": "in vivo, rat", "settings": "3 mg/kg once a day for 15 weeks, FIG. 5", "experimental": "By using 8-week old Zucker diabetic fatty (ZDF) rats, the body weight, the elimination amount of urinary total protein (UTP), the plasma triglyceride concentration (TG), and the plasma total cholesterol concentration (TC) of each rat were measured before administration of the medicine, and group separation was performed by blocking assignment so that there was no variation of these values between respective groups. Solvent control (0.5% MC), 3 mg/kg telmisartan, 3 mg/kg of the compound of Example 21, and 3 mg/kg of the compound of Example 23 were administered iteratively for 15 weeks once a day. UTP, TG, and TC were measured according to a general method during the administration period at 4, 8, 12, and 15 weeks after the administration.\nVehicle, Telmisartan, Compound 23, and Compound 21 in FIGS. 4, 5, and 6 represent solvent control, telmisartan, the compound of Example 23, and the compound of Example 21, respectively. The horizontal axis of FIG. 4-1 represents time (weeks after administration), and the vertical axis represents the elimination amount of urinary total protein per 18 hours. The data in FIG. 4-1 represents average values of each individual in each point, wherein -●- represents Vehicle (solvent control), -♦- represents Telmisartan, -▪- represents Compound 23 (the compound of Example 23), and -▴- represents Compound 21 (the compound of Example 21). The vertical axis of FIG. 4-2 represents the elimination amount of urinary total protein per 18 hours. The data in FIG. 4-2 represents individual values and average values of each individual +standard deviation.\nThe vertical axis of FIG. 5 represents the plasma triglyceride concentration. The data in FIG. 5 represents individual values and average values of each individual.\nThe vertical axis of FIG. 6 represents the plasma total cholesterol concentration. The data in FIG. 6 represents individual values and average values of each individual.\nFurthermore, it was believed that one reason for the potent activity may be related to improving activity of lipid metabolism, and it is believed that the potent activity is attributed to activities other than the angiotensin receptor antagonistic activity."}, "[3]": {"target": "T1, human PPARγ2 (Homo sapiens, UniProt P37231)", "T1 construct": "the amino acids 182 to 505 of human PPARγ2; expressed in transfected cells; host or cells: COS7 cells (African green monkey kidney)", "T1 sequence (P37231 182-505)": "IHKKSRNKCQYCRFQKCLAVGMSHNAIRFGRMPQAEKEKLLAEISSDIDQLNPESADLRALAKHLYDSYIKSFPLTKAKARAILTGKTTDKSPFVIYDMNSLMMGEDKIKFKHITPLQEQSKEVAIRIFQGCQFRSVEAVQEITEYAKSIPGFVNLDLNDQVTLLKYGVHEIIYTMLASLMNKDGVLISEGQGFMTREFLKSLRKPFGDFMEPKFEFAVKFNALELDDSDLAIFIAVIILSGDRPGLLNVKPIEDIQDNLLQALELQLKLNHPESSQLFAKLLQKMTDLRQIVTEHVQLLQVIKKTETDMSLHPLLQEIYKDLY", "assay": "PPARγ activation activity, Gal4-PPARγ2 LBD luciferase transfection assay using COS7 cells", "assay_type": "cell-based", "settings": "Gal4-human PPARγ2 LBD chimera, 16 hours, rosiglitazone = 100%", "experimental": "The agonistic activity of the compounds of the invention on PPARγ was measured based on the transfection assay using COS7 cells (DS Pharma Biomedical Co., Ltd., Osaka, Japan), which are the cell line derived from the kidney of the African green monkey. COS7 cells were cultured under 5% CO2 concentration, and DMEM medium containing 10% fetal bovine serum, glutamic acid, and antibiotics was used as a medium.\nAs an expression vector, a chimera in which DNA binding domain of Gal4, which is a yeast transcription factor, and ligand binding domain of human PPARγ2 are fused, i.e., a fused product between the amino acids 1 to 147 of Gal4 transcription factor and the amino acids 182 to 505 of human PPARγ2, was used. Furthermore, as a reporter vector, a firefly luciferase containing five copies of Gal4 recognition sequence in the promoter region was used. Plasmid transfection to the cells was performed according to a method which uses jetPEI (trade name, manufactured by Funakoshi Co., Ltd., Tokyo, Japan). Furthermore, β-galactosidase expression vector was employed as an internal standard.\nAfter the transfection of the cells, the medium was replaced with a DMEM medium (containing 1% serum) added with the test compound, and the cells were further cultured for 16 hours. After that, the luciferase activity and β-galactosidase activity in the cell lysis solution were measured.\nFor the present test, dimethyl sulfoxide (DMSO) was used for dissolution and dilution of the test compounds, and during the cell treatment, the DMSO concentration in DMEM medium (containing 1% serum) was adjusted to 0.1%. As a positive compound, rosiglitazone (trade name, manufactured by ALEXIS Corporation, Switzerland) was used. The luciferase activity (%) of the test compounds (1 to 30 μmol/L) was calculated when the luciferase activity of rosiglitazone (3 to 10 μmol/L) is 100% and the luciferase activity in the absence of the test compound is 0%. The 50% effective concentration of the test compound (EC50, 50% effect concentration) was calculated by using SAS Preclinical Package Ver 5.0 (trade name, manufactured by SAS institute Japan Co., Tokyo, Japan), which is a statistical analysis program.\nEC50 values of these compounds are described in Table 2. […] Under the same condition, the PPARγ activation activity of telmisartan, i.e., EC50, was 1 to 5 μM."}}, "data": [{"smiles": "CCCc1nc2c(C)cc(-c3nc4ccccc4n3C)cc2n1Cc1ccc(-c2ccccc2C(=O)O)cc1", "note": "[telmisartan, reference compound]", "values": [{"measurement": "plasma glucose concentration", "setting": "[1]; 2 weeks after initiation, FIG. 2", "result": "not confirmed"}, {"measurement": "AUC of plasma glucose in the glucose tolerance test (120 minutes after glucose solution)", "setting": "[1]; 4 weeks, glucose 2 g/kg, FIG. 3", "result": "not confirmed"}, {"measurement": "plasma triglyceride concentration", "setting": "[2]", "result": "such activity was not found"}, {"measurement": "EC50", "setting": "[3]", "result": "1000 to 5000", "unit": "nM"}]}]}
